Measured values published in patent publication US12527770B2 (Teikoku Pharma USA, Inc., priority 2016, dated 2026).
Where two headings read alike, the source gives them in different places.

Experiments:
[1] = system: patients after Austin bunionectomy surgery; settings: for use of rescue medication (oxycodone), Mean (SD): n = 43
Description: Each transdermal delivery device was applied to the subject between 10 hours and 14 hours before each patient underwent Austin bunionectomy surgery with standard intraoperative anesthesia.
Pain was evaluated in patients at times from immediately after surgery through 72 hours after surgery using the Pain Intensity Numeric Rating Scale (NRS) and Summed Pain Intensity (NRSSPI). Pain was also evaluated based on the time and first use of rescue pain medication as well as total use of rescue medication.

Cc1cccc([C@H](C)c2cnc[nH]2)c1C [Dexmedetomidine]
solubility of dexmedetomidine (in Duro-Tak 87-2979): less than 2%
solubility of dexmedetomidine (in Duro-Tak 387/87-2353): 10-15%
solubility of dexmedetomidine (in hydroxyl functionalized acrylate polymer): less than 1%
solubility of dexmedetomidine (in levulinic acid): ~60%
solubility of dexmedetomidine (in oleic acid): ~40%
use of rescue medication (oxycodone), Mean (SD) ([1]; 0 to 24 Hours after Surgery): 23.5 (11.98)
use of rescue medication (oxycodone), Mean (SD) ([1]; 0 to 48 Hours after Surgery): 37.5 (22.74)
use of rescue medication (oxycodone), Mean (SD) ([1]; 0 to 72 Hours after Surgery): 46.4 (30.80)
proportion of patients requesting rescue medication ([1]; first six hours after surgery, vs placebo): lower proportion
pain intensity difference between dexmedetomidine and placebo ([1]; over a 4-fold mean plasma dexmedetomidine concentration range): constant
pain rating (Numerical Rating Scale) compared to placebo ([1]; through 72 hours after surgery, 2×3 cm^2 patch): lower pain rating
frequency of requests for rescue medication ([1]; vs placebo): less frequently
